Data set [1] concerns stationary phase B. burgdorferi. The data set can be described thus: SYBR Green I/PI viability assay (drug library screen, plate reader). The note with it: for viability at 50 µM: Borreliella burgdorferi, 168 h; for activity against stationary phase B. burgdorferi (in words): screen at 50 μM, 7 days.
The next data set has as its system growing B. burgdorferi. The data set can be described thus: MIC of active hits. The data set is classed as cell-based, Borrelia burgdorferi.
Data set [2] has as its system stationary phase B. burgdorferi. The data set can be described thus: Residual viable B. burgdorferi by epifluorescence microscope counting after drug exposure. The note with it: for viability at 50 µM: Borreliella burgdorferi, 168 h, read-out: Residual viable cells (Microscopy); for Residual viable cells (Microscopy): drugs 50 μM. The procedure:
Borrelia burgdorferi strain B31 (ATCC35210) was received from the […] (Manassas, Va., USA) and was grown in BSK-H medium (HiMedia Laboratories, Mumbai, India) and 6% rabbit serum (Sigma Aldrich, St. Louis, Mo., USA). The culture was filtered and sterilized using a […] and incubated in capped sterile 50 mL conical tubes (BD Biosciences, CA, USA) at 33° C. for 7 days without antibiotics until the culture reached stationary phase.
The cultures were examined using a Nikon Eclipse E800 microscope with differential interference contrast and epifluorescent illumination. The pictures were captured using a SPOT slider color camera. A SYBR Green I/PI assay was used to assess the viability of the bacterial sample using the ratio of live to dead B. burgdorferi (measured with green and red fluorescence, respectively) as measured by a plate reader.
Briefly, prediluted drug stock (10 μL) was added to 7 day old stationary phase B. burgdorferi culture (90 μL) to achieve a 50 μM final drug concentration per well. The plates were then incubated at 33° C. for 7 days at which point the SYBR/PI rapid viability assay was performed in a fluorescence plate reader to obtain the green-red fluorescence ratio.

[3] abbreviates: read-out: Residual viable cells (SYBR Green/PI), Table 1, drugs 50 μM, 7 day old stationary phase cells treated for 7 days.
[4] abbreviates: read-out: Residual viable cells (SYBR/PI), Table 3, drugs 50 μM, 7-day old stationary phase cells treated for 7 days.
[5] abbreviates: Borreliella burgdorferi, read-out: MIC.

“Also recorded” adds a separate entry of the source. Read-outs that look alike come from different tables or passages of the source.

A word on the MIC: it is the smallest concentration in the dilution series that meets the test's criterion for growth inhibition.

As to `Cc1c(-c2cnccn2)ssc1=S` [Oltipraz], the viability at 50 µM came out at 46% in data set [1] (setting [3]), 46% in data set [1] (setting [4]) and 55% in data set [2]. Besides, the “activity against stationary phase B. burgdorferi (in words)” value (“activity” below) in data set [1] is “high activity”. Further, in the data set on growing B. burgdorferi (setting [5]), the MIC is 0.71 to 1.41 µg/mL.

On to `OC(Cn1cncn1)(Cn1cncn1)c1ccc(F)cc1F` [Fluconazole], for which the viability at 50 µM in data set [1] (setting [3]) is 55%; in data set [1] (setting [4]) it was 55%; in data set [2], 45%. For the same compound, the “activity” value in data set [1] is “reasonable activity”. In the data set with growing B. burgdorferi (setting [5]), the MIC was in the range of 0.48 to 0.96 µg/mL.

With `CCCCCCCCCCCCCCCC[N+](C)(C)CCN(Cc1ccc(OC)cc1)c1ncccn1` [Thonzonium bromide], the viability at 50 µM in data set [1] (setting [4]) worked out at 31%; in data set [2], 33%. Further, in data set [1], the “activity” value is on record as “very high activities; also recorded: comparable activity to daptomycin”. Moreover, the MIC in the data set with growing B. burgdorferi (setting [5]) lay within 0.92 to 1.85 µg/mL.

For `O=C(O)[C@@H]1CCC(O)=N1` (racemic) [Pidolic acid, DL-2-Pyrrolidone-5-Carboxylic Acid], the viability at 50 µM in data set [1] (setting [3]) amounted to 45%; in data set [1] (setting [4]), 43%; in data set [2] it was 45%. For the same compound, the “activity” value in data set [1] was “high activity”. The MIC with growing B. burgdorferi (setting [5]) lay within 0.81 to 1.61 µg/mL.

Turning to Dextrorphan tartrate, the “Residual viable cells (SYBR Green/PI)” value in data set [1] (Table 1, drugs 50 μM, 7 day old stationary phase cells treated for 7 days) was 47%. In addition, the “Residual viable cells (SYBR/PI)” value in data set [1] (Table 3, drugs 50 μM, 7-day old stationary phase cells treated for 7 days) was 47%. In data set [1], the “activity” value is given as “high activity”. Further, the MIC in the data set with growing B. burgdorferi lay in the range of 1.27 to 2.55 µg/mL. Moreover, the “Residual viable cells (Microscopy)” value amounted to 43% in data set [2] (Table 1, 7 day old stationary phase cells treated for 7 days) and 43% in data set [2] (Table 3, 7-day old stationary phase cells treated for 7 days).

Values taken from patent US20190008848A1, “IDENTIFICATION OF ADDITIONAL ANTI-PERSISTER ACTIVITY AGAINST BORRELIA BURGDORFERI FROM AN FDA DRUG LIBRARY” (THE JOHNS HOPKINS UNIVERSITY, priority 2015, published 2019).
